Data on one molecule can be found in patent US12600742B2, “Markers, conjugates, compositions and methods for hypoxia imaging, mapping, and therapy” (WWIKY BIOSCIENCES INC., priority 2017, dated 2026).

Data set [1] deals with FaDu cells. The data set is described as follows: Hypoxic cytotoxicity of ACN, colony formation assay. In kind it is cell-based, human. The settings on record: concentrations up to 100 μM, 24 h, normoxia (20% O2) or hypoxia (1% O2 and <0.1% O2). How it is done: (§1) Human head and neck squamous cell carcinoma cell line, FaDu, was purchased from American Type Culture Collection (ATCC HTB-43). FaDu cells were cultured in Dulbecco's Modified Eagle's medium/Nutrient Mixture F-12 media supplemented with 10% Fetal bovine serum, 2 mM L-glutamine and 10% Penicillin Streptomycin. Cells were cultured in a humidified incubator at 37° C. with 5% CO2.
(§2) Hypoxic cytotoxicity of ACN was evaluated using colony formation assay. FaDu cells were seeded on 60 mm glass petri dishes (in triplicates) at a density of 300 cells per plate. Cells were allowed to attach for 24 hours, followed by treatment with 1 μM, 10 μM and 100 μM of freshly dissolved ACN for 24 hours under normoxia (20% O2) or hypoxia (1% O2 and <0.1% O2); 100 μM DMSO was used as vehicle control. Cells were allowed to grow and form colonies for 14 days. Colonies were stained with crystal violet, counted and plotted as percentage of vehicle conditions; error bars show standard error of the means. […] Colonies were stained with crystal violet, counted and plotted as percentage of vehicle (DMSO) controls; error bars represent standard error of the means. […] 1 hr following IR, cells were trypsinized, counted, and seeded on 24 well plates in triplicates at a density of 50,000 cells per well. Cells were trypsinized 1, 3, 5 and 7 days after re-plating, and counted with a Z2 coulter particle counter.

For data set [2], the system named is FaDu cells. The data set is described as follows: Cell proliferation assay (cell counts). In kind it is cell-based, human. The conditions noted are these: 100 μM, alone or in combination with 5 Gy IR. The protocol: as §1, §2
The test system of data set [3] is FaDu xenograft tumors. The data set is described as follows: Assessment of ACN as a hypoxia tracer in tumor-bearing mice. In kind it is in vivo, BALB/c nude mice. The settings on record: 80 mg/Kg intraperitoneally, 2 hours post-injection. How it is done:
Female BALB/c nude mice (Charles River Laboratories) aged 6 weeks were used and cared for according to the CCAC guidelines. We used a biflanked sub-cutaneous tumor model where the tumor in the left flank was untreated (control) and the tumor in the right flank served as the ‘treatment’ group. We subcutaneously injected 6×10^6 FaDu cells in 0.1 ml of sterile 0.9% NaCl into the upper right flank to form palpable tumors. The tumors were measured daily until the volume reached 10 mm3. The mice were divided into 4 groups and injected intraperitoneally in 0.15 ml 0.9% saline with: 1-80 mg/Kg ACN, 2-80 mg/Kg pimonidazole (Hypoxyprobe), 3-80 mg/Kg ACN:pimonidazole in a 1:1 ratio and 4-0.9% saline control. Mice were sacrificed 2 hours post-injection, tumors removed and frozen in OCT. Seven micron serial sections were taken of each tumor, dried and stored at −80° C.
Tissue sections were air dried for 25 minutes, fixed for 5 minutes in −20° C. acetone; air dried 25 minutes and blocked in PBS with 1% BSA for 20 minutes. Sections were incubated with primary antibodies for small vessel endothelium [1:100 rabbit anti-CD34 (abcam)] or hypoxia [1:100 rabbit anti-pimonidazole Hypoxyprobe)] for 2 hours at room temperature, followed by 3 five minute washes in 1×PBS. […]

The test system of data set [4] is FaDu cells. The data set can be described thus: Comparison of hypoxia selective uptake of ACN and Pimonidazole in vitro. In kind it is cell-based, human. How it is done:
FaDu cells were grown on coverslips (as described above) and treated simultaneously with 100 μM ACN and 100 μM Pimonidazole. The cells were subsequently exposed to normoxic (20% Oxygen), hypoxic (1% Oxygen) or anoxic (0% Oxygen) conditions for 6 hours, and fixed in 2% PFA. Standard Pimonidazole IHC was performed as described elsewhere using an Alexafluor 647 labelled secondary antibody. Click chemistry was performed as previously described using an Alexafluor 555 conjugated alkyne followed by nuclear staining with Hoechst. Mounted coverslips on glass slides were imaged as described earlier.

The test system of data set [5] is FaDu cells. The data set can be described thus: In vitro inverse oxygen dependent entrapment of ACN, click chemistry fluorescence. In kind it is cell-based, human. How it is done:
The Click-IT reaction cocktail (Molecular Probes) was made up according to the manufacturer's directions using a 1:5000 dilution of the 2 mg/ml Alexafluor 555 or 594 conjugated alkyne stock (Molecular Probes). The reaction cocktail was used within 15 minutes of preparation. All reactions were done at room temperature in the dark.
Subconfluent FaDu cells were trypsinized, and approximately 3-5×10^5 cells were seeded in 35 mm tissue culture plates containing sterilized […] glass coverslips. Cells were allowed to grow overnight, and treated with different concentrations of ACN (1 μM, 10 μM and 100 μM) under normoxia (20% Oxygen), hypoxia (1% Oxygen) or anoxia (0% Oxygen) for 6 hours. Hypoxia and anoxia were achieved using an in house de-gassing system. Post-treatment, all steps were carried out at room temperature. Cells were washed three to five times with 1×PBS, fixed in 2% paraformaldehyde (PFA) for 20 minutes, and washed again three times with 1×PBS. The fixed cells were then blocked and permeabilized with 1% BSA in 1×PBS containing 0.1% Triton-100 for 20 minutes, followed by incubation with click cocktail containing Alexafluor 594 conjugated alkyne for 30 minutes. Subsequently cells were washed and stained with Hoechst 33342 (1:10000 dilution in PBS, Life Technologies) for 5 minutes before mounting them on glass slides (Fluoroshield Mounting Medium, abcam). The prepared slides were kept at 4° C. until imaged. Images were obtained by with a Plan-Apochromat 40X/1.3 Oil DIC lens on a Zeiss 710 confocal microscope using Zen 2011 software.

The test system of data set [6] is FaDu cells. The data set can be described thus: Radiosensitization potential of ACN, colony formation assay with 5 Gy IR. In kind it is cell-based, human. The settings on record: 100 μM ACN and 5 Gy IR, normoxia or hypoxia (<0.1% O2). The protocol:
as §1, §2

In data set [7] the test system is FaDu cells. The data set can be described thus: Retention profile of ACN in hypoxic cells following re-oxygenation. In kind it is cell-based, human. The conditions noted are these: 100 μM. How it is done: After bioreductive activation under hypoxia, nitroimidazole reactive species (nitroradical anion) bind to cellular nucleophiles to form drug-protein adducts. To evaluate how fast these adducts are metabolized, we treated FaDu cells with 100 μM of ACN under normoxia or anoxia for 6 hours, and exposed them to subsequent re-oxygenation. Cells were fixed after 0 hr, 1 hr, 3 hr, 6 hr and 18 hr of re-oxygenation. Click chemistry was performed on fixed cells as previously described.

On to `[N-]=[N+]=NCC1OC(n2ccnc2[N+](=O)[O-])[C@H](O)[C@H]1O` (some centres unmarked) [ACN, 5’-azido-arabinofuranosyl-2-nitroimidazole], for which, in data set [1], the “hypoxia-selective cytotoxicity (colony formation)” value is reported as “did not show any hypoxia-selective cytotoxicity”. Also, the “cell counts compared to vehicle control” value in data set [2] is “did not generate significant difference in cell counts”. The “localization in tumor sections” value in data set [3] is “co-localizes in hypoxic regions of FaDu xenograft tumors”. In addition, the “staining detected by oxygen condition” value in data set [4] (100 μM of each compound, 6 h) is recorded as “detected in oxygen deprived cells”. The “sub-cellular distribution of signal” value in data set [4] (hypoxic <0.1% O2 cells, 100 μM) is reported as “higher nuclear signal”. Also, the “entrapment in cells versus oxygen level (click signal)” value in data set [5] (1, 10, 100 μM, 6 h, normoxia, hypoxia, <0.1% O2) is “entrapped in FaDu cells in an inverse oxygen dependent manner”. For the same molecule, in data set [5] (1-100 μM, hypoxic cells), the “dose dependence of entrapment in hypoxic cells” value was “dose dependent manner”. Further, in data set [5] (normoxia (20% Oxygen)), the “entrapment in well oxygenated or normoxic cells” value is “minimal to almost no entrapment”. Moreover, in data set [6], the “hypoxic radiosensitization (colony formation)” value was “No hypoxic radiosensitization was observed”. In data set [7] (6 h anoxia then re-oxygenation), the “time after re-oxygenation up to which signal for ACN-protein adducts could be detected” value is given as “up to 6 hours”. Moreover, the “signal after 18 hours re-oxygenation” value in data set [7] (18 hours re-oxygenation) is listed as “very faint signal”.
